Assay results taken from patent publication US9328138B2 (priority 2011, dated 2016).

Tests used:
[1] = target: T1, HCV genotype 1b (BK) NS3 modified enzyme with a R155K mutation (Hepatitis C virus genotype 1b, UniProt P26663, R1181K); assay: HCV NS3 protease time-resolved fluorescence (TRF) assay, genotype 1b R155K; assay type: biochemical; details: Ki 1b R155K, genotype 1b (BK) NS3 R155K; single value
T1 construct: HCV genotype 1b (BK) NS3 modified enzyme
Procedure, shortened: (§1)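 NS3/NS4A protease was pre-incubated 10 min with inhibitor in 50 mM HEPES pH 7.5, 150 mM NaCl, 15% glycerol, 0.15% Triton X-100, 10 mM DTT, 0.1% PEG 8000. TRF peptide substrate (25 nM final) was hydrolysed for 6 h at room temperature. IC50 came from four-parameter fits.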

[2] = target: HCV NS3 protease genotype 3a (3A-1) (Hepatitis C virus genotype 3a, UniProt Q81258); assay: HCV NS3 protease time-resolved fluorescence (TRF) assay, genotype 3a; assay type: biochemical; details: Ki 3a
Procedure, shortened: as §1

SMILES | Ki [1] | Ki [2]
C=C[C@@H]1C[C@]1(NC(=O)[C@@H]1C[C@@H]2CN1C(=O)[C@H](C(C)(C)C)NC(=O)O[C@@H]1C[C@H]1CCCCCc1c(nc3ccccc3c1OCCCN(C)CC1CCC(=O)N1)O2)C(=O)NS(=O)(=O)C1(C)CC1 (stereo partly drawn) [Example 195, (1aR,5S,8S,10R,22aR)-5-tert-butyl-N-[(1R,2S)-2-ethenyl-1-{[(1-methylcyclopropyl)sulfonyl]carbamoyl}cyclopropyl]-17-(3-{methyl[(5-oxopyrrolidin-2-yl)methyl]amino}propoxy)-3,6-dioxo-1,1a,3,4,5,6,9,10,18, 19,20,21,22,22a-tetradecahydro-8H-7,10-methanocyclopropa[18,19][1,10,3,6] dioxadiazacyclononadecino[11,12-b] quinoline-8-carboxamide] | 0.049 nM | 0.66 nM
C=C[C@@H]1C[C@]1(NC(=O)[C@@H]1C[C@@H]2CN1C(=O)[C@H](C1CCCC1)NC(=O)O[C@@H]1CCC[C@H]1CC/C=C/Cc1c(nc3ccccc3c1OCCOC)O2)C(=O)NS(=O)(=O)C1CC1 [Example 46, (3aR,7S,10S,12R,21E,24aS)-7-cyclopentyl-N-{(1R,2S)-1-[(cyclopropylsulfonyl)carbamoyl]-2-ethenylcyclopropyl}-19-(2-methoxyethoxy)-5,8-dioxo-1,2,3,3a,5,6,7,8,11,12,20,23,24,24a-tetradecahydro-10H-9,12-methanocyclopenta[18,19][1,10,3,6] dioxadiazacyclononadecino[11,12-b] quinoline-10-carboxamide] | 0.15 nM | 4 nM
C=C[C@@H]1C[C@]1(NC(=O)[C@@H]1C[C@@H]2CN1C(=O)[C@H](C(C)(C)C)NC(=O)O[C@@H]1CCC[C@H]1CC/C=C/Cc1c(nc3ccccc3c1OCCCO)O2)C(=O)NS(=O)(=O)C1(C)CC1 [Example 71, (3aR,7S,10S,12R,21E,24aS)-7-tert-butyl-N-[(1R,2S)-2-ethenyl-1-{[(1-methylcyclopropyl)sulfonyl]carbamoyl}cyclopropyl]-19-(3-hydroxypropoxy)-5,8-dioxo-1,2,3,3a,5,6,7,8,11,12,20,23,24,24a-tetradecahydro-10H-9,12-methanocyclopenta[18,19][1,10,3,6]dioxadiazacyclononadecino[11,12-b]quinoline-10-carboxamide] | < 0.016 nM | 0.42 nM
C=C[C@@H]1C[C@]1(NC(=O)[C@@H]1C[C@@H]2CN1C(=O)[C@H](C(C)(C)C)NC(=O)O[C@@H]1C[C@H]1CCCCCc1c(nc3c(OC)cccc3c1OCCCN1CCCC1)O2)C(=O)NS(=O)(=O)C1(C)CC1 [Example 143, (1aR,5S,8S,10R,22aR)-5-tert-butyl-N-[(1R,2S)-2-ethenyl-1-{[(1-methylcyclopropyl)sulfonyl]carbamoyl}cyclopropyl]-13-methoxy-3,6-dioxo-17-[3-(pyrrolidin-1-yl)propoxy]-1,1a,3,4,5,6,9,10,18,19,20,21,22,22a-tetradecahydro-8H-7,10-methanocyclopropa[18,19][1,10,3,6]dioxadiazacyclononadecino[11,12-b]quinoline-8-carboxamide] | 0.059 nM | 0.64 nM
C=C[C@@H]1C[C@]1(NC(=O)[C@@H]1C[C@@H]2CN1C(=O)[C@H](C(C)(C)C)NC(=O)O[C@@H]1CCC[C@H]1CCCCCc1c(nc3ccccc3c1OCCCN1CCOCC1)O2)C(=O)NS(=O)(=O)C1(COC)CC1 [Example 64, (3aR,7S,10S,12R, 24aR)-7-tert-butyl-N-[(1R,2S)-2-ethenyl-1-({[1-(methoxymethyl)cyclopropyl]sulfonyl}carbamoyl)cyclopropyl]-19-[3-(morpholin-4-yl)propoxy]-5,8-dioxo-1,2,3,3a,5,6,7,8, 11,12,20,21,22,23,24, 24a-hexadecahydro-10H-9,12-methanycyclopenta [18,19][1,10,3,6] dioxadiazacyclo-nonadecino [11,12-b]quinoline-10-carboxamide] | 0.43 nM | 5.5 nM
